Results reported in publication PMC7712428, “Dimethoate Induces DNA Damage and Mitochondrial Dysfunction Triggering Apoptosis in Rat Bone-Marrow and Peripheral Blood Cells” (Toxics, 2020).
Read-outs that look alike come from different tables or passages of the source. Marks after values point to notes of the source that are not given here.

Assays:
bone marrow cells = conditions: for P/N: PCE:NCE ratio
Excerpt: (§1) The experimental animals—Rattus norvegicus (Wistar strain; 8–10 weeks old; 120 ± 20 gm; males only) were acquired from Indian Institute of Integrative Medicine (IIIM-CSIR) (Jammu, India), quarantined, acclimatized and sacrificed as per standard practice conforming to the University Ethical Regulations. After acclimatization, rats were divided into five groups by stratified randomization with five animals per group. […] Distilled water was used to prepare dosing solutions of test agent and injected via intraperitoneal (i.p.) injection. At 24, 48 and 72 h post-dosing, 5 rats per duration were sacrificed and necessary tissues were isolated for different cytogenetic and molecular parameters. For CA assessment, separate experimental lot was used due to colchicine treatment.
MN assay followed the protocol of Schmid. Immediately after sacrificing the animals, both femurs were removed from the pelvic bone and freed from the extra muscles. After cutting the epiphyses, the bone marrow was collected by gentle flushing with 2 mL FBS. Centrifuge cell suspension at 1000 rpm for 5 min and discarded the supernatant. The pellets obtained were saved in 50 μL fresh FBS. Re-suspended the cell pellet and a small drop was spread onto clean grease-free glass slides and dried in air. By using absolute methanol, the smears were fixed for 10min following the staining by May-Grunwald / buffered Giemsa at pH 6.8. Micronuclei and the ratio of polychromatic erythrocyte (PCE) to normochromatic erythrocyte (NCE) i.e., P/N were scored. The micronucleus frequencies (indicated as mean percent micronucleated cells) were examined by considering the micronucleated PCEs number (MNPCEs) from at least 2000 PCEs/animal. Cytotoxic effect of test compound was evaluated by calculating the PCE:NCE ratio in at least 1000 erythrocytes per animal. For final observation, DPX mounted slides were photographed at 100× with oil immersion (Olympus U—PMTV microscope mounted with optical zoom camera).

rat WBCs = conditions: Mean ± SD, 40 mg/kgbw; for Sub-G1: cells percentage (apoptosis); for G1 / G2/M / S: cells percentage
Excerpt: as §1
(§2) WBCs were isolated by following the protocol of Lone et al.. Blood was collected in 0.1% EDTA from retro-orbital plexus of rat, followed by incubation for 30 min. 500 µL of blood was then added to a centrifuge tube with 1 mL FACS lysing solution. The blood was incubated for 10 min and centrifuged (2000 rpm, 10 min) at 25 °C. After discarding the supernatant, pellet was washed in 1mL FACS lysing solution followed by centrifuging at 2000 rpm for 5 min. Repeated this step twice and then pellet was put in 500 µL of PBS, leaving only WBCs.
Post completion of exposures, PBS was used to wash the harvested cells and fixed in cold ethanol (70%) for 48 h. Cells were digested by RNase (400 μg/mL) at 37 °C for 45 min. After incubating the cells with Propidium iodide (10 μg/mL), examined instantly on flow cytometer FACSAriaII (Becton Dickinson, San Jose, CA, USA). A total of 10,000 events were obtained for cell cycle analysis.

Lymphocytes = conditions: initial exposure time
Excerpt: as §1, §2
Protocol of Majeed and colleagues was employed for flow cytometric measurements of change in Ψm. […] Leukocytes were identified via forward and side scatter.

[1] = cited from earlier work

With `O=P1(N(CCCl)CCCl)NCCCO1` (centres unmarked) [Cyclophosphamide, reference compound] the “MNPCE (Mean% ± SD)” value (bone marrow cells; 40 mg/kgbw i.p., 24 h) was 10.6 ± 0.81 %, the “MNPCE (Mean% ± SD)” value (bone marrow cells; 40 mg/kgbw i.p., 48 h) was 8.2 ± 0.66 % and the “MNPCE (Mean% ± SD)” value (bone marrow cells; 40 mg/kgbw i.p., 72 h) was 7.1 ± 0.43 %. The P/N (bone marrow cells; 40 mg/kgbw i.p., 24 h) was 0.604 *, the P/N (bone marrow cells; 40 mg/kgbw i.p., 48 h) was 0.529 ** and the P/N (bone marrow cells; 40 mg/kgbw i.p., 72 h) was 0.581 **. For the same compound, the Sub-G1 (rat WBCs; 24 h) was 91.3 ± 4.12 ***^,a, the Sub-G1 (rat WBCs; 48 h) was 76.3 ± 4.16 ***^,a and the Sub-G1 (rat WBCs; 72 h) was 98.4 ± 6.01 ***^,a. For the same compound, the G1 (rat WBCs; 24 h) was 6.06 ± 1.26, the G2/M (rat WBCs; 24 h) was 2.53 ± 0.06 and the S (rat WBCs; 24 h) was 0.2 ± 0.01. The G1 (rat WBCs; 48 h) was 21.33 ± 2.41, the G2/M (rat WBCs; 48 h) was 1.3 ± 0.2 and the S (rat WBCs; 48 h) was 0.06 ± 0.01. It also gave a G1 (rat WBCs; 72 h) of 0.87 ± 0.03, a G2/M (rat WBCs; 72 h) of 0.4 ± 0.02 and an S (rat WBCs; 72 h) of 0.33 ± 0.11.
In the case of `CNC(=O)CSP(=S)(OC)OC` [DM, 0,0- Dimethyl S-(N-methylcarbamoylmethyl) phosphorodithiote], the “MNPCE (Mean% ± SD)” value (bone marrow cells; 20 mg/kgbw i.p., 24 h) is reported as 4.4 ± 0.51 %, the “MNPCE (Mean% ± SD)” value (bone marrow cells; 20 mg/kgbw i.p., 48 h) is reported as 4.0 ± 0.44 % and the “MNPCE (Mean% ± SD)” value (bone marrow cells; 20 mg/kgbw i.p., 72 h) is reported as 3.6 ± 0.50 %. For the same compound, the “MNPCE (Mean% ± SD)” value (bone marrow cells; 40 mg/kgbw i.p., 24 h) was 5.2 ± 0.58 %, the “MNPCE (Mean% ± SD)” value (bone marrow cells; 40 mg/kgbw i.p., 48 h) was 4.8 ± 0.86 % and the “MNPCE (Mean% ± SD)” value (bone marrow cells; 40 mg/kgbw i.p., 72 h) was 4.1 ± 0.73 %. The “MNPCE (Mean% ± SD)” value (bone marrow cells; 60 mg/kgbw i.p., 24 h) was 5.6 ± 0.7%, the “MNPCE (Mean% ± SD)” value (bone marrow cells; 60 mg/kgbw i.p., 48 h) was 4.9 ± 0.74 % and the “MNPCE (Mean% ± SD)” value (bone marrow cells; 60 mg/kgbw i.p., 72 h) was 3.8 ± 0.80 %. For the same compound, the P/N (bone marrow cells; 20 mg/kgbw i.p., 24 h) was 0.740 *, the P/N (bone marrow cells; 20 mg/kgbw i.p., 48 h) was 0.736 * and the P/N (bone marrow cells; 20 mg/kgbw i.p., 72 h) was 0.731 *. For the same compound, the P/N (bone marrow cells; 40 mg/kgbw i.p., 24 h) was 0.728 *, the P/N (bone marrow cells; 40 mg/kgbw i.p., 48 h) was 0.715 * and the P/N (bone marrow cells; 60 mg/kgbw i.p., 24 h) was 0.725 *. For the same compound, the P/N (bone marrow cells; 60 mg/kgbw i.p., 48 h) was 0.721 *, the P/N (bone marrow cells; 60 mg/kgbw i.p., 72 h) was 0.718 * and the “maximum MMP loss” value (Lymphocytes; lymphocytes) was “greater than 30%”. For the same compound, the “MMP loss in lymphocytes” value (Lymphocytes; range over increased DM doses) was 6.3–32.3% and the hazard label [1] was “Class II, moderately hazardous”.
